According to ChEMBL document CHEMBL4346677, “Compounds based on 5-(perylen-3-ylethynyl)uracil scaffold: High activity against tick-borne encephalitis virus and non-specific activity against enterovirus A” (Eur J Med Chem, 2019):
The source made the active and inactive calls. The calls are words filed in the database; no cut-off is given here.

Key:
[1] = Cytotoxicity against African green monkey Vero cells assessed as reduction in cell viability after 24 hrs by microscopic method; assay type: cell-based; conditions: chlorocebus sabaeus
RD = assay: Cytotoxicity against human RD cells assessed as formation of syncytium-like patterns of cells at 50 uM after 7 days by microscopic method; assay type: cell-based; conditions: 168 h
[2] = Cytotoxicity against PEK cells assessed as formation of syncytium-like patterns of cells at 50 uM after 7 days by microscopic method; assay type: cell-based, Sus scrofa; conditions: pig, 168 h
Echovirus = assay: Antiviral activity against Echovirus 30 isolate 48461; assay type: functional, organism-based
[3] = Cytotoxicity against human RD cells assessed as reduction in cell viability after 24 hrs by microscopic method; assay type: cell-based
Vero = assay: Cytotoxicity against African green monkey Vero cells assessed as formation of syncytium-like patterns of cells at 50 uM after 7 days by microscopic method; assay type: cell-based; conditions: chlorocebus sabaeus, 168 h
[4] = Cytotoxicity against human RD cells assessed as reduction in cell viability after 7 days by microscopic method; assay type: cell-based
Poliovirus 1 = assay: Antiviral activity against poliovirus type 1 sabin 1; assay type: functional, organism-based
Enterovirus A71 = assay: Antiviral activity against Enterovirus A71 isolate 46973 infected in human RD cells assessed as reduction in virus induced cytopathic effect preincubated with viral suspension for 1 hr followed by cell addition measured after 5 to 7 days; assay type: functional, organism-based
[5] = Cytotoxicity against PEK cells assessed as reduction in cell viability after 24 hrs by microscopic method; assay type: cell-based, Sus scrofa; conditions: pig
[6] = Cytotoxicity against African green monkey Vero cells assessed as reduction in cell viability after 7 days by microscopic method; assay type: cell-based; conditions: chlorocebus sabaeus
[7] = tested on: Tick-borne encephalitis virus; assay: Antiviral activity against TBEV Absettarov infected in PEK cells assessed as plaque reduction preincubated for 1 hr followed by overlaying with 1.26% methylcellulose and measured after 6 days by gentian violet staining-based assay; assay type: functional, organism-based
[8] = Cytotoxicity against PEK cells assessed as reduction in cell viability after 7 days by microscopic method; assay type: cell-based, Sus scrofa; conditions: pig

Row | Structure (SMILES) | CC50 at 24 h [1] [µM] | Activity (RD) | Activity [2] | Activity (Echovirus) | CC50 at 24 h [3] [µM] | Activity (Vero) | CC50 at 168 h [4] [µM] | Activity (Poliovirus 1) | EC50 (Enterovirus A71) | CC50 at 24 h [5] [µM] | CC50 at 168 h [6] [µM] | EC50 [7] [µM] | CC50 at 168 h [8] [µM]
1 | CC(C)(C)C(=O)OCn1c(=O)c(C#Cc2ccc3c4cccc5cccc(c6cccc2c63)c54)cn(CC(=O)NCCCCCCO)c1=O | 38 | Toxic | Toxic | inactive | 19 | Toxic | 38 | inactive | Not Active | > 50 | > 50 | 0.024 | > 50
2 | O=C(Cn1cc(C#Cc2ccc3c4cccc5cccc(c6cccc2c63)c54)c(=O)[nH]c1=O)NCCCCCCO | 38 | Toxic | Toxic | inactive | 19 | Toxic | 38 | inactive | Not Active | > 50 | > 50 | 0.0061 | > 50
3 | CC(C)(C)C(=O)OCn1c(=O)c(C#Cc2ccc3c4cccc5cccc(c6cccc2c63)c54)cn(CC(=O)O)c1=O |  | Toxic | Toxic | inactive |  | Toxic |  | inactive |  | > 50 |  | 0.0012 | > 50
4 | O=C(Cn1cc(C#Cc2ccc3c4cccc5cccc(c6cccc2c63)c54)c(=O)[nH]c1=O)N(CCO)CCO | > 50 | Toxic | Toxic | inactive | > 104 | Toxic | > 104 | inactive | Not Active | > 50 | > 50 | 0.007 | > 50
5 | O=C(O)Cn1cc(C#Cc2ccc3c4cccc5cccc(c6cccc2c63)c54)c(=O)[nH]c1=O | > 50 | Toxic | Toxic | inactive | 61 | Toxic | 65 | inactive | Not Active | > 50 | > 50 | 0.05 | > 50
6 | O=C(Cn1cc(C#Cc2ccc3c4cccc5cccc(c6cccc2c63)c54)c(=O)[nH]c1=O)NCCO |  | Toxic | Toxic | inactive | > 104 | Toxic | > 104 | inactive | Not Active | > 50 |  | 0.003 | > 50
7 | O=C(Cn1cc(C#Cc2ccc3c4cccc5cccc(c6cccc2c63)c54)c(=O)[nH]c1=O)NCCCCCO | > 50 | Toxic | Toxic | inactive | > 104 | Toxic | > 104 | inactive | Not Active | > 50 | > 50 | 0.077 | > 50
8 | CCCCNC(=O)Cn1cc(C#Cc2ccc3c4cccc5cccc(c6cccc2c63)c54)c(=O)[nH]c1=O |  | Toxic | Toxic | inactive | 76 | Toxic | 76 | inactive | Not Active | > 50 |  | 0.014 | > 50
